# Reference: patent US10881642B2, “Autophagy enhancer and use thereof” (Industry-Academic Cooperation Foundation, Yonsei University, priority 2016, dated 2021)
# System: HeLa cells
# Test: Acridine orange staining of acidic vesicular organelles
# Assay type: cell-based
# Conditions: 24 hrs
# Experimental: FIG. 3A is the graph showing the percentage of nuclear translocated TFEB for which TFEB-GFP HeLa cells were treated with MSL compound for 4 hrs and then nuclei of the cells were stained with DAPI. FIG. 3B is the results of the experiments in which HeLa cells were incubated in the presence of MSL compound or vehicle control for 24 hrs and then the acidic vesicular organelles formed were stained with acridine orange. FIG. 3C is the results of the experiments in which TFEB-GFP HeLa cells were treated with MSL compound or vehicle control for 4 hrs and then the cells were immunoblotted with the antibodies indicated. […]
# Screening of autophagy enhancer. […] Firefly luciferase was determined after mixing 5 μl of lysate with 25 μl of Luciferase Assay Reagent II. Renilla luciferase was then determined after further addition of 20 ul of Stop&Glo Reagent. […] Cytotoxicity was determined by the measurement of LDH release in cell culture media using the LDH kit (Roche), according to the protocol from the manufacturer. […] Imaging and image quantification. […] Formation of acidic vesicular organelles was quantitated by staining the cells with acridine orange (Invitrogen, 5 ug/ml, 10 min). […] Cells or tissues were solubilized in lysis buffer supplemented with protease and phosphatase inhibitors and protein concentration was measured by the Bradford method. […] Protein levels were quantified by using ImageJ software analysis. […]
compound,measurement,value
CSc1oc(-c2ccccc2)nc1S(=O)(=O)c1ccc(F)cc1 [MSL],red fluorescence after acridine orange staining (lysosomal acidification and content),significantly increased
